In data set [1] the test system is U2OS. The data set is described as follows: Incucyte cell viability with U2OS. The format is toxicity, cell-based. Conditions: human, 10 µM, compound concentration 10 uM.
The subject of data set [2] is HEK-293T. The experiment in a line: Incucyte cell viability with HEK293T. The class given is toxicity, cell-based. Conditions: human, 10 µM, compound concentration 10 uM.
The mark [3] stands for this setting: 0 h, replicate number 2, timepoint 0 hours.
The mark [4] stands for this setting: 6 h, replicate number 1, timepoint 6 hours.
Where [5] appears, read: 12 h, replicate number 1, timepoint 12 hours.
[6] abbreviates: 18 h, replicate number 1, timepoint 18 hours.
Setting [7] is: 18 h, replicate number 2, timepoint 18 hours.
Setting [8] is: 24 h, replicate number 1, timepoint 24 hours.
Where [9] appears, read: 24 h, replicate number 2, timepoint 24 hours.
Where [10] appears, read: 0 h, replicate number 1, timepoint 0 hours.
[11] abbreviates: 12 h, replicate number 2, timepoint 12 hours.
Setting [12] is: 6 h, replicate number 2, timepoint 6 hours.
Note: filed as whole numbers so only -1 and 0 and 1 occur.

`NC(=O)c1cccc(-c2cc(Nc3ccc(OC(F)(F)F)cc3)ncn2)c1`: the “Growth Rate” value was 1 in data set [1] (setting [3]); 1 in data set [1] (setting [4]); 0 in data set [1] (setting [5]); 1 in data set [1] (setting [6]); 0 in data set [1] (setting [7]); 1 in data set [1] (setting [8]). Besides, the “Growth Rate” value in data set [1] (setting [9]), in data set [2] (setting [10]), in data set [2] (setting [4]), in data set [2] (setting [5]), in data set [2] (setting [6]) and in data set [2] (setting [8]) was 0 throughout.
With `O=C(Nc1ccc(Cl)cc1)Nc1cccc(-c2cccc(N3CCCC3)n2)c1`, the “Growth Rate” value in data set [1] (setting [10]) is listed as 0; in data set [1] (setting [5]), 0; in data set [1] (setting [6]), 0; in data set [1] (setting [8]), 0; in data set [2] (setting [10]), 1; in data set [2] (setting [3]), 0. The “Growth Rate” value in data set [2] (setting [4]), in data set [2] (setting [5]), in data set [2] (setting [6]) and in data set [2] (setting [8]) was 0 in each case.
Regarding `O=C1N/C(=N/c2ccccc2F)S/C1=C\c1ccc(C(=O)O)cc1`, the “Growth Rate” value in data set [1] (setting [10]) came to 0; in data set [1] (setting [3]), 1; in data set [1] (setting [5]) it was 1; in data set [1] (setting [11]), 0; in data set [1] (setting [6]), 1; in data set [1] (setting [7]), 0. In addition, the “Growth Rate” value is 1 in data set [1] (setting [8]), 0 in data set [1] (setting [9]), 1 in data set [2] (setting [5]) and 1 in data set [2] (setting [8]).
With `COc1cc(N2CCC(N3CCN(C)CC3)CC2)ccc1Nc1ncnc(Nc2ccccc2S(=O)(=O)C(C)C)n1` [ASP-3026], the “Growth Rate” value in data set [1] (setting [3]) turned out to be 0; in data set [1] (setting [4]) it was 0; in data set [1] (setting [12]) it was 1; in data set [1] (setting [5]) it was 0; in data set [1] (setting [6]), 0; in data set [1] (setting [8]) it was 0. Also, the “Growth Rate” value in data set [2] (setting [4]), in data set [2] (setting [5]), in data set [2] (setting [6]) and in data set [2] (setting [8]) was 0 throughout.
As to `CCCn1c(=O)c2[nH]c(-c3cnn(Cc4cccc(C(F)(F)F)c4)c3)nc2n(CC)c1=O` [GS 6201], the “Growth Rate” value in data set [1] (setting [10]) is 0; in data set [1] (setting [11]), 1; in data set [1] (setting [6]), 1; in data set [1] (setting [7]), 0; in data set [1] (setting [8]), 1; in data set [1] (setting [9]), 0. The “Growth Rate” value in data set [2] (setting [10]) turned out to be 1; in data set [2] (setting [3]) it was 0; in data set [2] (setting [4]) it was 0; in data set [2] (setting [12]) it was 1; in data set [2] (setting [5]) it was 0; in data set [2] (setting [11]) it was 1. For the same compound, the “Growth Rate” value in data set [2] (setting [6]) and in data set [2] (setting [8]) was 0 in each case.
On to `Cl.Oc1ccc2c3c1O[C@H]1c4[nH]c5c(c4C[C@@]4(O)[C@@H](C2)N(CC2CC2)CC[C@]314)C[C@@]1(O)[C@H]2Cc3ccc(O)c4c3[C@@]1(CCN2CC1CC1)[C@H]5O4`, for which the “Growth Rate” value in data set [1] (setting [10]) worked out at 0; in data set [1] (setting [4]) it was 0; in data set [1] (setting [5]), 1; in data set [1] (setting [11]), 0; in data set [1] (setting [6]), 1; in data set [1] (setting [7]) it was 0. Moreover, the “Growth Rate” value was 1 in data set [1] (setting [8]); 0 in data set [1] (setting [9]); 0 in data set [2] (setting [10]); 1 in data set [2] (setting [4]); 1 in data set [2] (setting [5]); 1 in data set [2] (setting [6]). The “Growth Rate” value in data set [2] (setting [8]) is 1; in data set [2] (setting [9]), 0.
Turning to `COc1cc(N2CCN(C)CC2)ccc1Nc1ncc2c(n1)N(C)c1ccccc1C(=O)N2C`, the “Growth Rate” value in data set [1] (setting [10]) is 0; in data set [1] (setting [3]), 1; in data set [1] (setting [4]), 1; in data set [1] (setting [12]), 0; in data set [1] (setting [5]), 1; in data set [1] (setting [6]), 0. Also, the “Growth Rate” value in data set [1] (setting [8]) came to 0; in data set [2] (setting [10]), 1; in data set [2] (setting [12]), 1; in data set [2] (setting [11]), 0; in data set [2] (setting [6]), 1; in data set [2] (setting [7]), 0. Further, in data set [2] (setting [8]), the “Growth Rate” value came to 0.
In the case of `CCN1CCN(c2ccc(Nc3cc(N(C)C(=O)Nc4c(Cl)c(OC)cc(OC)c4Cl)ncn3)cc2)CC1` [INFIGRATINIB], the “Growth Rate” value in data set [1] (setting [3]) is on record as 0; in data set [1] (setting [4]), 1; in data set [1] (setting [5]), 0; in data set [1] (setting [6]), 0; in data set [1] (setting [8]), 0; in data set [2] (setting [4]), 0. The “Growth Rate” value in data set [2] (setting [5]), in data set [2] (setting [6]) and in data set [2] (setting [8]) was 0 throughout.

Source of the values: ChEMBL document CHEMBL4689842, “EUbOPEN Chemogenomics Library wave 1” (2021).
